Laboratory results taken from patent US11225642B2, “Method for producing renal progenitor cells” (KYOTO UNIVERSITY, priority 2013, dated 2022).

Tested on: OSR1-GFP & SIX2-tdTomato reporter human iPS cell line
Test: SIX2-positive cell induction method 1, SIX2-tdTomato-positive cell rate by flow cytometer
Type: cell-based
Conditions: induction method 1; stage 3 medium with 5 ng/ml TGFβ1 and 0.5 μM Dorsomorphin, 15 to 22 days
Procedure: The OSR1-GFP & SIX2-tdTomato reporter human iPS cell line obtained by the method in Example 1 was cultured at 37° C. in a 2-5% CO2 atmosphere to become confluent on 10-cm dishes containing a primate ES/iPS cell medium (ReproCELL) supplemented with 5 ng/ml bFGF (Wako) with the use of SNL cells (McMahon, A. P. and Bradley, A. (1990) Cell 62; 1073-1085) (the cells being treated with 15.5 μg/ml mitomycin (Kyowa Hakko Kirin Co., Ltd.) for 2 to 3 hours and seeded at a density of 3×10^5 cells/10-cm dish) as feeder cells. A CTK solution (2.5% Trypsin (Invitrogen), 1 mg/ml Collagenase IV (Invitrogen), 0.1 M CaCl2, 10 mL KnockOut SR (Invitrogen), and 29.5 mL H2O) was added to dissociate the cells. After removal of the feeder cells, the dissociated cells were suspended in a DMEM/F12 medium containing 1 μM CHIR99021 (Stemgent, 04-0004), 100 ng/ml Activin A (R&D Systems, 338-AC), 1% GlutaMAX (100×) (Invitrogen, 35050-061), 2% FBS (Hyclone), and 0.5% PenStrep (Invitrogen, 10565). Then, the cell suspensions were transferred to a low cell binding plate (LOW CELL BIND 6 WELL DISH (Nunc, 145383)) such that each well contained one-third to one-sixth of the cell suspension obtained from the 10-cm dish, followed by suspension culture at 37° C. in a 5% CO2 atmosphere for 2 days.
The cell mass obtained at stage 1 was transferred to a 24-well or 6-well dish coated with Matrigel (BD Matrigel Matrix Growth Factor Reduced (BD Biosciences, 356230) (the dish being coated with 0.2 mg/ml Matrigel in DMEM and treated at 37° C. for 30 minutes or at 4° C. overnight) or a 24-well or 6-well dish coated with Synthemax (Corning Synthemax II-SC Substrate (Corning, 3535XX1)) (the dish being coated with Synthemax diluted 40-fold with sterile water and treated at room temperature for 2 hours). The medium was exchanged with a DMEM/F12 medium containing 1 μM CHIR99021, 100 ng/ml BMP7 (Recombinant human BMP7 (R&D Systems, 3534-BP)), 0.1% 2-mercaptoethanol (1000×) (Invitrogen, 21985), 1% GlutaMAX (100×), 10% KnockOut SR (Invitrogen), 0.1 mM MEM NEAA (Invitrogen, 11140), and 0.5% PenStrep, followed by adhesion culture at 37° C. in a 5% CO2 atmosphere for 3 to 6 days. In the case of culture for 3 days or more, the medium was exchanged every 3 days with a medium having the same conditions.
The medium was removed from the cells obtained at stage 2. The cells were washed with PBS and then the medium was exchanged with a DMEM/F12 medium containing 5 ng/ml TGFβ1 (Peprotech, 100-21C), 0.5 μM Dorsomorphin (AMPK Inhibitor, Compound C (Merck, 171260)), 0.1% 2-mercaptoethanol (1000×), 1% GlutaMAX (100×), 10% KnockOut SR, 0.1 mM MEM NEAA, and 0.5% PenStrep, followed by suspension culture at 37° C. in a 5% CO2 atmosphere for 15 to 22 days. In this case, the medium was exchanged every 3 days with a medium having the same conditions.
At stage 3 of SIX2-positive cell induction method 1, Dorsomorphin was replaced with 100 ng/ml Noggin (Peprotech), 0.5 μM LDN193189 (Axon MedChem, 1509), or 0.5 μM DMH1 (Tocris, 4126) for differentiation induction in the aforementioned manner.
At stage 3 of SIX2-positive cell induction method 1, TGFβ1 was exchanged with 50 μM IDE1 (Tocris) or 50 μM IDE2 (Tocris) for differentiation induction in the aforementioned manner.
At stage 3 of SIX2-positive cell induction method 1, Dorsomorphin was replaced with 0.5 μM LDN193189, while TGFβ1 with 10 ng/ml TGFβ2 (Peprotech) or 10 ng/ml TGFβ3 (R&D), for differentiation induction in the aforementioned manner. As a result, the SIX2-positive cell rates were 8.6% and 9.3%, respectively (FIGS. 2G and 2H).

Row | Compound | SIX2-tdTomato-positive cell rate [%]
1 | c1cc(-c2cnn3cc(-c4ccc(OCCN5CCCCC5)cc4)cnc23)ccn1 [Dorsomorphin, 6-[4-(2-piperidin-1-yl-ethoxy)phenyl]-3-pyridin-4-yl-pyrazolo[1,5-a]pyrimidine] | 21.5±2.0
2 | TGFβ1: TGFβ signaling activator protein (Peprotech) | 21.5±2.0
